Each structure is given as a SMILES string.

Data set [1] concerns saphenous vein in rabbits. In words: Contractile effect on the rabbit saphenous vein precontracted by a depolarizing physiological solution (K+ 40 mM). It is filed as cell-based. As to conditions: Oryctolagus cuniculus, precontracted with 40 mM potassium. Here is the method:
(§1) The contractile effects are measured in vitro under static conditions on vascular capacitance or resistance rings of saphenous, femoral, jugular, mesenteric, and caval veins . . . and on femoral, carotid, basilar, or mesenteric arteries, as well as the thoracic or abdominal aorta . . . in rats (Wistar, 200-250 g), rabbits (New Zealand, 2-2.5 kg), guinea pigs (Dunkin Hartley 250-300 g).
(§2) The rings are placed in a chamber for isolated organs (25 mL for capacitance vessels and 2.5 mL for resistance vessels according to Mulvany), and maintained under isometric conditions using two rigid threads inserted inside the vessel, avoiding causing damage to the endothelium. The vessels are bathed in a modified Krebs solution (in mM: NaCl=118; KCl=4.6; CaCl2 =2.5; MgSO4 =1.2; KH2 PO4 =1.17; NaHCO3 =25; glucose=11), continuously aerated using a gaseous mixture of 95% O2 and 5% Co2, at a pH=7.4, and regulated by thermostat at 37° C. The rings are adjusted to their optimal point as far as the tension-length relationship is concerned. The tensions developed generate an electrical signal through the intermediary of a force sensor (Wheatstone bridge). […] The pharmacological studies are carried out after a few standardized preliminary contractile stimulations using a depolarizing solution (hyperpotassic type obtained by replacing NaCl with KCl in equimolar quantities), along with rinsings and periods of equilibration in a pure physiological solution. The presence of endothelium is verified by the relaxation induced by increasing the concentration of acetylcholine after the stabilization of a vascular precontraction.
The forces of contraction developed by the vascular rings in response to the different compounds are studied on quiescent or electrically stimulated vessels (5-8 Hz), by a "physiological" depolarizing hyperpotassic solution (KCl: 20, 40 mM), by noradrenaline (increasing concentrations), [and by] serotonin (increasing concentrations).
The contractions are expressed in mg force or as a percentage of the maximum contraction at the time of the depolarization with a "physiological" hyperpotassic solution.
The contractile effect of different compounds on the saphenous vein in rabbits, precontracted by a depolarizing "physiological" solution with a potassium concentration of 40 mM, is given as an illustration; the maximum effect produced by each compound is expressed as a percentage of the maximum contraction induced by depolarizing hyperpotassic solutions and as value of ED50): […]

Data set [2] concerns saphenous vein in rabbits. The data set can be described thus: Potentiation of the contractile response of the rabbit saphenous vein to electrical stimulation. It is filed as cell-based. As to conditions: Oryctolagus cuniculus, read-out: increase of contractile response due to electrical stimulation. As to the method: as §1
as §2, with “concerned.” for “concerned. The tensions developed generate an electrical signal through the intermediary of a force sensor (Wheatstone bridge).”, “The presence of endothelium is verified by the relaxation induced by increasing the concentration of acetylcholine after the stabilization of a vascular precontraction.” left out

Data set [3] has as its system capillary resistance of rats. The data set can be described thus: Capillary resistance of rats after oral administration (petechial index). Type of data set: in vivo, rat (Wistar). As to conditions: rat. As to the method: The increase in the capillary resistance is evaluated by the modification of the petechial index (negative pressure inducing the extravasation of the erythrocytes), measured by a method derived from the angiosterrometer of Parrot.
The studies are carried out on male Wistar rats with an average weight of 200 g (approximate age six weeks). The bottom area of the back is shorn, then the hair is pulled by means of a paste based on a derivative of thioglycolic acid and calcium hydroxide. After approximately 30 min, the skin is abundantly rinsed and dried.
On the day of the study, the rats are maintained without constraint. A low pressure of 80 mm of mercury is applied. If the petechiae (extravasation of erythrocytes) have not appeared within 15 sec, the low pressure is increased as a countermeasure, keeping the suction cap at the same place.
The minimum low pressure where petechias appear, in mm of mercury, expresses the basal capillary resistance (before any treatment). Two measurements are made for each test at different sites on of the back.
The rats are treated by the oral route. […] All the measurements are done in the blind mode.
A percentage of variation in the capillary resistances of the animals treated compared to their basal capillary resistance is calculated for each compound studied, at each treatment time and compared with the control group (excipient only) or the reference group.

The subject of another data set is mice. The data set can be described thus: Single oral administration toxicity in mice. It is filed as in vivo, mouse. To be noted: single oral administration, 1 g/kg. From the text: Moreover, the compounds of the invention and their possible salts have a very low toxicity.
The subject of data set [4] is basilar artery of rabbits. The data set can be described thus: Contraction of rabbit basilar artery under depolarizing hyperpotassic conditions. It is filed as cell-based. As to the method:
as §1
as §2, with “concerned.” for “concerned. The tensions developed generate an electrical signal through the intermediary of a force sensor (Wheatstone bridge).”, “The presence of endothelium is verified by the relaxation induced by increasing the concentration of acetylcholine after the stabilization of a vascular precontraction.” left out

In a further data set the test system is carotid arteries of rats. In words: Contraction of rat carotid arteries under depolarizing hyperpotassic conditions. It is filed as cell-based. To be noted: pH 7.4, read-out: ED50 (contraction). As to the method: as §1
as §2, with “concerned.” for “concerned. The tensions developed generate an electrical signal through the intermediary of a force sensor (Wheatstone bridge).”, “The presence of endothelium is verified by the relaxation induced by increasing the concentration of acetylcholine after the stabilization of a vascular precontraction.” left out

For data set [5], the system named is dorsal cutaneous chamber in hamsters. In words: Dorsal cutaneous chamber in hamsters (microcirculation, histamine). It is filed as in vivo. As to conditions: hamster, 28 mg/kg i.v. bolus, after histamine 1 mg/kg i.v. Here is the method: In the conscious animal, the arterial pressures are measured according to the classical method derived from Riva Rocci, by the analysis of the acoustical wave transmitted at the arterial level and transformed by a ceramic piezo transducer placed on the tail of the rat, downstream from a sleeve that is automatically inflated by a pressure generator. At the microcirculatory level, the variations in the sections of the veinules and arterioles are studied in vivo in the model of the dorsal cutaneous chamber of conscious hamsters, after a video microscopic recording (microscope Leitz Ergolux equipped with a halogen source for the illumination and its black-and-white CD video camera HPR 610) and computer analysis (software Visicap, Pack ICAP) of the images.
After anesthesia with sodium pentobarbital (60 mg/kg in i.p. administration), the back of the animal is shaved and hair is pulled so as to be able to put an observation chamber (Professor Gebhard, Heidelberg) on the back skin. The two parts of this chamber are sewn after careful removal of a certain level of skin thicknesses, which can impede the observation. A jugular catheter is placed for the i.v. administration of the products, 48 h after the operation.
The effect of the compounds on the hyperpermeability induced by inflammatory agents, such as histamine and bradykinin, is also studied after intravenous injection in a bolus in the model of the dorsal cutaneous chamber of hamsters and according to the method developed by Gimeno et al., described earlier ("A new technique using intravital videomicroscopy for macromolecular permeability measurement," 18th European Congress on Microcirculation, Rome, 1994) using videomicroscopy and image analysis by quantification of the distribution of the intra- and extravascular fluorescence of the fluorescent marker (FITC-Dextran) injected in a bolus through the jugular catheter (63 mg/kg for a volume defined at 1 mL/kg). The microscope is equipped with a fluorescence source and a combination of filters (excitation in the blue range 450-490 nm, and 515-nm stop filter).

For orientation: Emax means the size of the effect at its maximum, as opposed to the concentration needed. For `O=C1c2ccccc2C(=O)c2sc(-c3ccco3)nc21` [Example n, 4,9-Dihydro-4,9-dioxo-2-(2-furyl)-naphtho[2,3-d]thiazole], in data set [1] (% of maximum contraction induced by hyperpotassic solutions), the Emax is 24 ± 3%. Further, the EC50 in data set [1] (read-out: ED50 (the source's name)) was found to be 110 nM. Besides, the activation at 0.3 µM in data set [2] was found to be 200%. Moreover, in data set [3], the “correlation of duration of action with plasma concentrations” value was “correlates with its measured plasma concentrations”, the “dose dependence of oral effect on capillary resistance” value is recorded as “dose dependent over a broad range of doses” and the “duration of action on capillary resistance” value is “at least 6 h”. Besides, the “Increase of capillary resistance, effects after 4 h” value in data set [3] (0.1 mg/kg, 4 h, * granulometry: 0.5-0.6 mm) was 45 % of the control. In addition, the “Increase of capillary resistance, effect after 6 h” value in data set [3] (0.1 mg/kg, 6 h, * granulometry: 0.5-0.6 mm) is given as 45 % of the control. Further, in the data set on mice, the observed signs entry was “red urine”; the “toxic effect and mortality” value was “no observable toxic effect and no mortality”. Besides, the “contraction of basilar artery” value in data set [4] was “contracts”. The EC50 in the data set with carotid arteries of rats worked out at 300 nM. In data set [5], the arteriolar diameter entry is reported as “not the arteriolar diameter”, the histamine-induced vascular hyperpermeability result is on record as “reduces the vascular hyperpermeability” and the veinule diameter result is recorded as “reduces the veinule diameter”.
